# Data published in patent US8758810B2, “Liposome compositions” (priority 2005, dated 2014).
# Test system: AsPC-1 cells
# Test: Cytotoxicity test for oxaliplatin (WST-1 kit)
# Type: cell-based
# Conditions: l-OHP solutions 48 hours
# Method: An oxaliplatin (l-OHP) solution was prepared by dissolving oxaliplatin in a 9% sucrose solution (sucrose/distilled water) at a concentration of 8 mg/ml. The cell viability was determined using a commercially available cytotoxicity assay kit (WST-1 kit, Wako Pure Chemical Industries, Ltd., Japan).
# AsPC-1 cells (provided by Dr. Hironobu Yanagie of Research Center for Advanced Science and Technology, the University of Tokyo, Japan) cultured in RPMI 1640 medium supplemented with 10% FCS (fetal calf serum; SIGMA, USA) were treated with concentrations of l-OHP solutions [200×(1/2)^(0-10) nM] at 37° C. in 5% CO2 for 48 hours. Then, the medium was removed and a substrate (WST-1, Cell Counting Kit, Dojindo Laboratories, Japan) was added to the cells which were incubated at 37° C. in 5% CO2 for 2 hours to develop the colored product. The developed color was measured at an absorbance of 450 nm (reference wavelength: 620 nm) on an Immuno Mini NJ-2300 (Cosmo Bio Co., Ltd., Japan).
smiles,measurement,value
"O=C1[O][Pt]2([NH]C3CCCCC3[NH]2)[O]C1=O [l-OHP, cis-[(1R, 2R)-1,2-cyclohexanediamine-N,N′][oxalato(2)-O,O′]platinum]",cytotoxicity LD50,> 8 µg/mL
